In ChEMBL document CHEMBL6103629 (J Med Chem, 2025):

Assays:
[1] = Permeability across basolateral to apical side in human Caco-2 cells at 0.1 to 10 uM incubated for 120 mins by LC-MS/MS analysis; format: ADME, cell-based; details: caco-2, 2 h, dose 0.1-10 µM
LoVo [2] = experiment: Induction of apoptosis in human LoVo cells assessed as early apoptotic cells at 3 uM incubated for 24 hrs by Annexin-V-FITC-PI staining based flow cytometric analysis (reference value: 13.7 %); format: functional
[3] = Toxicity in female Balb/c nude mouse xenografted with human LoVo cells assessed as body weight at 40 mg/kg QD, po measured every 3 days for 25 days; format: organism-based; details: in vivo, 600 h, time 25 day
[4] = Stability in Sprague-Dawley rat plasma assessed as half life by LC-MS/MS analysis; format: ADME, cell-free
[5] = Drug metabolism in human liver cells at 2 uM incubated upto 120 mins by LC-MS/MS analysis; format: ADME, cell-based; details: 2 h
LoVo [6] = experiment: Induction of apoptosis in human LoVo cells assessed as viable cells at 1 uM incubated for 24 hrs by Annexin-V-FITC-PI staining based flow cytometric analysis (reference value: 72.1 %); format: functional; details: read-out: Activity
[7] = Induction of CYP2B6 mRNA expression in human primary hepatocyte isolated from RAS donor at 0.1 to 10 uM incubated for 72 hrs by real-time PCR analysis; format: ADME, cell-based; details: hepatocytes, dose 0.1-10 µM
[8] = Drug accumulation in male Beagle dogs at 5 mg/kg, IG measured for 7 days by LC-MS/MS analysis; format: ADME, organism-based, Canis lupus familiaris; details: dog, in vivo, po, 168 h, time 7 day
Cytochrome P450 1A2 = Cytochrome P450 1A2 (Homo sapiens, UniProt P05177); experiment: Inhibition of CYP1A2 in human liver microsomes in the presence of NADPH incubated for 60 mins by LC-MS/MS analysis; format: ADME, Microsome
[9] = Toxicity in female Balb/c nude mouse xenografted with human NCI-H1703 cells assessed as body weight at 40 mg/kg QD, po administered as 3 days on and 4 days off schedule for 4 weeks; format: organism-based; details: in vivo, 672 h, time 28 day
LoVo [10] = experiment: Induction of apoptosis in human LoVo cells assessed as early apoptotic cells at 1 uM incubated for 24 hrs by Annexin-V-FITC-PI staining based flow cytometric analysis (reference value: 13.7 %); format: functional
[11] = Induction of CYP2B6 mRNA expression in human primary hepatocyte isolated from DZM donor at 0.1 to 10 uM incubated for 72 hrs by real-time PCR analysis; format: ADME, cell-based; details: hepatocytes, dose 0.1-10 µM
Hepatocyte [12] = experiment: Cytotoxicity against human primary hepatocytes isolated from RAS donor at 0.1 to 10 uM incubated for 72 hrs by cytotox-glo assay; format: toxicity, cell-based; details: dose 0.1-10 µM
Cytochrome P450 3A4 = Cytochrome P450 3A4 (Homo sapiens, UniProt P08684); experiment: Inhibition of CYP3A4 in human liver microsomes using testosterone as substrate and in presence of NADPH incubated for 60 mins by LC-MS/MS analysis; format: ADME, Microsome
Cytochrome P450 2C19 = Cytochrome P450 2C19 (Homo sapiens, UniProt P33261); experiment: Inhibition of CYP2C19 in human liver microsomes in the presence of NADPH incubated for 60 mins by LC-MS/MS analysis; format: ADME, Microsome
CYP2B6 = CYP2B6 (Homo sapiens, UniProt P20813); experiment: Inhibition of recombinant human CYP2B6 assessed as residual activity at 1 uM in the presence of NADPH incubated for 60 mins by LC-MS/MS analysis relative to control; format: ADME; details: read-out: Activity
JeKo-1 = experiment: Antitumor activity against human JeKo-1 cells xenografted in female CB17 SCID mouse assessed as tumor growth inhibition at 40 mg/kg BID, po administered as 3 days on and 4 days off schedule for 24 days relative to control; format: functional; details: JeKo-1, 576 h, time 24 day, read-out: TGI
[13] = Induction of CYP2B6 mRNA expression in human primary hepatocyte isolated from YND donor at 0.1 to 10 uM incubated for 72 hrs by real-time PCR analysis; format: ADME, cell-based; details: hepatocytes, dose 0.1-10 µM
LoVo [14] = experiment: Induction of apoptosis in human LoVo cells assessed as necrotic cells at 1 uM incubated for 24 hrs by Annexin-V-FITC-PI staining based flow cytometric analysis (reference value: 0.97 %); format: functional
[15] = Drug metabolism in human plasma by LC-MS/MS analysis; format: ADME, cell-free
[16] = Permeability across apical to basolateral side in human MDCK-MDR1 cells at 0.1 to 10 uM incubated for 120 mins by LC-MS/MS analysis; format: ADME, cell-based, Canis lupus familiaris; details: dog, mdck-mdr1, 2 h, dose 0.1-10 µM
[17] = Induction of CYP1A2 mRNA expression in human primary hepatocyte isolated from RAS donor at 0.1 to 10 uM incubated for 72 hrs by real-time PCR analysis; format: ADME, cell-based; details: hepatocytes, dose 0.1-10 µM
[18] = Drug metabolism in Beagle dog plasma by LC-MS/MS analysis; format: ADME, cell-free, Canis lupus familiaris; details: 5 h, 1 µM
[19] = Permeability across basolateral to apical side in human MDCK-MDR1 cells at 0.1 to 10 uM incubated for 120 mins by LC-MS/MS analysis; format: ADME, cell-based, Canis lupus familiaris; details: dog, mdck-mdr1, 2 h, dose 0.1-10 µM
[20] = Induction of CYP1A2 mRNA expression in human primary hepatocyte isolated from DZM donor at 0.1 to 10 uM incubated for 72 hrs by real-time PCR analysis; format: ADME, cell-based; details: hepatocytes, dose 0.1-10 µM
Hepatocyte [21] = experiment: Cytotoxicity against human primary hepatocytes isolated from YND donor at 0.1 to 10 uM incubated for 72 hrs by cytotox-glo assay; format: toxicity, cell-based; details: dose 0.1-10 µM
CYP2D6 = CYP2D6 (Homo sapiens, UniProt P10635); experiment: Inhibition of recombinant human CYP2D6 assessed as residual activity at 1 uM in the presence of NADPH incubated for 60 mins by LC-MS/MS analysis relative to control; format: ADME; details: read-out: Activity
[22] = Drug metabolism in CD-1 mouse liver cells at 2 uM incubated upto 120 mins by LC-MS/MS analysis; format: ADME, cell-based; details: 2 h
LoVo [23] = experiment: Induction of apoptosis in human LoVo cells assessed as late apoptotic cells at 1 uM incubated for 24 hrs by Annexin-V-FITC-PI staining based flow cytometric analysis (reference value: 13.2 %); format: functional
[24] = Drug excretion in Sprague-Dawley rat feces at 5 mg/kg, IG administrated for 48 hrs by LC-MS/MS analysis; format: ADME, organism-based; details: in vivo, po
[25] = Induction of CYP3A4 mRNA expression in human primary hepatocyte isolated from RAS donor at 0.1 to 10 uM incubated for 72 hrs by real-time PCR analysis; format: ADME, cell-based; details: hepatocytes, dose 0.1-10 µM
[26] = target: Serine/threonine-protein kinase mTOR (Homo sapiens, UniProt P42345); experiment: Inhibition of mTOR (unknown origin) preincubated for 15 mins and measured after 60 mins by Z-LYTE screening
[27] = Inhibition of DNA-PK (unknown origin) preincubated for 15 mins and measured after 60 mins by Z-LYTE screening; parameters: species or system Homo sapiens
LoVo [28] = experiment: Induction of apoptosis in human LoVo cells assessed as viable cells at 3 uM incubated for 24 hrs by Annexin-V-FITC-PI staining based flow cytometric analysis (reference value: 72.1 %); format: functional; details: read-out: Activity
[29] = Drug distribution in Sprague-Dawley rat small intestine at 5 mg/kg, IG administrated as single dose measured after 0.5 hrs by LC-MS/MS analysis; format: ADME, organism-based; details: in vivo, po

Sequence of Cytochrome P450 3A4 (P08684 whole entry): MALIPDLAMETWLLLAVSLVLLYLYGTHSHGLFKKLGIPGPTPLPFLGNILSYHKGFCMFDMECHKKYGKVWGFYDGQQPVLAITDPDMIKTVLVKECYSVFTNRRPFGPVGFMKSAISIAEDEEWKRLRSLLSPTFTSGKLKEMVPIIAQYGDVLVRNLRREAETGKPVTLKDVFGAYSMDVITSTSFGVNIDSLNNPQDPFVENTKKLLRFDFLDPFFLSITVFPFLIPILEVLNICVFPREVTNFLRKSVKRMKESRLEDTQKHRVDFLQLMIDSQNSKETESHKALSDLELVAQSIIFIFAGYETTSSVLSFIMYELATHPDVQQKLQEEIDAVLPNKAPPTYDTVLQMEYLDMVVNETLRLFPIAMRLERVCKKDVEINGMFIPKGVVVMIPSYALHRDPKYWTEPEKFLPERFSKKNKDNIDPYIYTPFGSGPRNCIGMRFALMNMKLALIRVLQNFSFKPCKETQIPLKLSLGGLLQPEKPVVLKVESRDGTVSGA
Sequence of CYP2D6 (P10635 whole entry): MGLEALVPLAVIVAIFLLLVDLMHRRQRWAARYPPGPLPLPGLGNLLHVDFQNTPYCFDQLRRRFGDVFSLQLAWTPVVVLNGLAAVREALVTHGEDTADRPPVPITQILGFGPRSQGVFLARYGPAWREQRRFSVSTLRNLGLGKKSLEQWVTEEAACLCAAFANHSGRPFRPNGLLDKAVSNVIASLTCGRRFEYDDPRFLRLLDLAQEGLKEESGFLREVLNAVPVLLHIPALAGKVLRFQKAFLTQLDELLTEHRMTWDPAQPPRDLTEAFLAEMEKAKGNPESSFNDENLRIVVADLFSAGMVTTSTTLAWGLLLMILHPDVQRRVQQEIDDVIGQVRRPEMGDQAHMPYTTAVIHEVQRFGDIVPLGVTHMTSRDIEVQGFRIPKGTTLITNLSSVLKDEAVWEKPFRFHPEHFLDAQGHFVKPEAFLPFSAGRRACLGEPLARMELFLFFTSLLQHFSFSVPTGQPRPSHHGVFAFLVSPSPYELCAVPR
Sequence of Cytochrome P450 2C19 (P33261 whole entry): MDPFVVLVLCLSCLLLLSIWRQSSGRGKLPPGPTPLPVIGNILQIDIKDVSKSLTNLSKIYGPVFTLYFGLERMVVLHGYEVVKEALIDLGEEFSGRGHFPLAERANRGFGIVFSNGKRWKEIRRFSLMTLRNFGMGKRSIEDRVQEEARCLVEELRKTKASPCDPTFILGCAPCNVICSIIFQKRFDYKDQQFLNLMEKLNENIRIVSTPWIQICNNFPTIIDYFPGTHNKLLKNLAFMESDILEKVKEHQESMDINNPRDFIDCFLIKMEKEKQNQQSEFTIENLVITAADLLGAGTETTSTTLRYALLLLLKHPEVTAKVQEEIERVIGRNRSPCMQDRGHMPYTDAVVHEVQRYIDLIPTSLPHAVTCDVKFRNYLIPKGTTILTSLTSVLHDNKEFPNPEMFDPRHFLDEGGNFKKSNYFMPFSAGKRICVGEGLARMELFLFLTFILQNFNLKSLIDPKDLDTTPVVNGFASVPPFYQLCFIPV
Sequence of CYP2B6 (P20813 whole entry): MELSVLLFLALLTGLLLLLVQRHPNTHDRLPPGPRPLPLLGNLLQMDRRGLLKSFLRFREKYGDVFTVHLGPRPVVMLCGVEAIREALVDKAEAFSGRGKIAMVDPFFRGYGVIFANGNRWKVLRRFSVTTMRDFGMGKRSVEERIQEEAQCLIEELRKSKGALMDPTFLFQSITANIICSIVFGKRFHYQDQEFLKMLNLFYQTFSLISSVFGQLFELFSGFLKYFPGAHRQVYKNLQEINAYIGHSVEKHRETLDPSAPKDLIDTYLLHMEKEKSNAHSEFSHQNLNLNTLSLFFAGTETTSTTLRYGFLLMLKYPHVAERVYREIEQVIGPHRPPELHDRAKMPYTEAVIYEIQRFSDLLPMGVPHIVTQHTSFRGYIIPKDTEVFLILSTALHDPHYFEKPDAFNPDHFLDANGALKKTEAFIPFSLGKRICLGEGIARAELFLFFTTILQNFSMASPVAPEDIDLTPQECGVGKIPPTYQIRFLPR
Sequence of Cytochrome P450 1A2 (P05177 whole entry): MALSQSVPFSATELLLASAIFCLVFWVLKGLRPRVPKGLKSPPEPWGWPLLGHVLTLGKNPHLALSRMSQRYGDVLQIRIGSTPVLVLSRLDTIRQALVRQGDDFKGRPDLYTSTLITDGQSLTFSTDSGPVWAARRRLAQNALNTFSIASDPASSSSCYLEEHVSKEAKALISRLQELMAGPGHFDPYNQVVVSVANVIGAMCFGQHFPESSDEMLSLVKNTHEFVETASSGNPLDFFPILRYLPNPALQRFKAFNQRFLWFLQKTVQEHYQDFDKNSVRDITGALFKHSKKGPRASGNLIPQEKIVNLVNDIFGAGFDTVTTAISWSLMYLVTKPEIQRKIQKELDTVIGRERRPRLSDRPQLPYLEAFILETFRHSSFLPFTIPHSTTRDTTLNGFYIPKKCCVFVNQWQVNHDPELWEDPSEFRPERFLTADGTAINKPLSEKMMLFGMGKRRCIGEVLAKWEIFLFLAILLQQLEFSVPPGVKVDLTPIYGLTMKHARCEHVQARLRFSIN

- permeability [1]: Permeable
- half-life [4]: > 2 h
- Drug metabolism [5]: metabolite_detected
- Activity [7]: Active
- Drug uptake [8]: Active
- IC50 (Cytochrome P450 1A2): > 100 µM
- Activity [11]: Active
- IC50 (Cytochrome P450 3A4): 41.5 µM
- IC50 (Cytochrome P450 2C19): 54.2 µM
- activity at 1 h, 1 µM (CYP2B6): 94.1%
- Activity [13]: Not_active
- Drug metabolism [15]: metabolite_notdetected
- permeability [16]: Permeable
- Activity [17]: Not_active
- Drug metabolism [18]: metabolite_notdetected
- permeability [19]: Permeable
- Activity [20]: Not_active
- activity at 1 h, 1 µM (CYP2D6): 101%
- Drug metabolism [22]: metabolite_detected
- Drug excretion [24]: Active
- Activity [25]: Active
- IC50 [26]: 1.82 µM
- IC50 [27]: 0.24 µM
- Drug uptake [29]: Active
SMILES: Cc1nn(-c2cccnc2)c(C)c1-c1cc(N2CC3CCC(C2)O3)nc2c(-c3ccn[nH]3)cnn12.O=C(O)/C=C/C(=O)O
- Activity (LoVo [2]): 23.8%
- Activity [3]: Non-toxic
- viability at 1 µM (LoVo [6]): 65%
- Activity [9]: Non-toxic
- Activity (LoVo [10]): 18.2%
- Activity (Hepatocyte [12]): Non-toxic
- inhibition in vivo at 40 mg/kg (JeKo-1): 90.6%
- Activity (LoVo [14]): 0.8%
- Activity (Hepatocyte [21]): Non-toxic
- Activity (LoVo [23]): 10%
- viability at 3 µM (LoVo [28]): 53.7%
